Measurements taken from ChEMBL document CHEMBL4732087, “Structure-activity relationship (SAR) studies of N-(3-methylpyridin-2-yl)-4-(pyridin-2-yl)thiazol-2-amine (SRI-22819) as NF-ҡB activators for the treatment of ALS” (Eur J Med Chem, 2021).
In brackets after ≈: the same amount, converted by molar mass.

Tests used:
[1] = Kinetic solubility of compound at pH 7.4 by shake flask method; assay type: physicochemical; conditions: buffer, read-out: Kinetic_solubility
[2] = Ratio of drug concentration in brain to plasma in CD1 mouse at 1 mg/kg, iv measured at […] by LC-MS/MS analysis; assay type: ADME, organism-based; conditions: time 0.25 hrs
[3] = Drug concentration in CD1 mouse plasma at 1 mg/kg, iv measured at 0.5 hrs by LC-MS/MS analysis; assay type: ADME, organism-based
[4] = Drug concentration in CD1 mouse brain at 1 mg/kg, iv measured at […] by LC-MS/MS analysis; assay type: ADME, organism-based; conditions: time 0.25 hrs, read-out: Ct
[5] = Ratio of drug concentration in brain to plasma in CD1 mouse at 1 mg/kg, iv measured at 0.5 hrs by LC-MS/MS analysis; assay type: ADME, organism-based
[6] = Drug concentration in CD1 mouse plasma at 1 mg/kg, iv measured at […] by LC-MS/MS analysis; assay type: ADME, organism-based; conditions: time 0.25 hrs
[7] = Drug concentration in CD1 mouse brain at 1 mg/kg, iv measured at 0.5 hrs by LC-MS/MS analysis; assay type: ADME, organism-based; conditions: read-out: Ct
[8] = Cmax in CD1 mouse at 5 mg/kg, po by LC-MS/MS analysis; assay type: ADME, organism-based; set-up: route oral, dose 5 mg/kg; conditions: in vivo
[9] = Oral bioavailability in CD1 mouse at 5 mg/kg by LC-MS/MS analysis; assay type: ADME, organism-based; conditions: in vivo

**Q.** With Fc1cccnc1Nc1nc(-c2ccccn2)cs1 as the compound, how does the solubility kinetic [1] read?
**A.** 45.4 µM (≈ 12.4 µg/mL)

**Q.** For O=C(O)c1cccc(-c2noc(-c3ccccc3F)n2)c1, which solubility kinetic [1] is on record?
**A.** 70.5 µM (≈ 20 µg/mL)

**Q.** Which Kp at […] [2] does the source give for NCc1cccc(-c2cnc(Nc3ccc(F)cc3)o2)c1 here?
**A.** 14.5

**Q.** And the concentration at 0.5 h [3]?
**A.** 21 ng/mL

**Q.** What about the concentration at […] [4] of the same compound?
**A.** 473 ng/g

**Q.** What about the Kp at 0.5 h [5] of the same compound?
**A.** 14.3

**Q.** And the solubility kinetic [1]?
**A.** 50.8 µM (≈ 14.4 µg/mL)

**Q.** And the concentration at […] [6]?
**A.** 32.8 ng/mL

**Q.** And the concentration at 0.5 h [7]?
**A.** 297 ng/g

**Q.** Which solubility kinetic [1] does the source give for COC(=O)c1ccc(-c2cnc(Nc3ccccc3F)o2)cc1 here?
**A.** < 1 µM

**Q.** With O=C(O)c1cccc(-c2cnc(Nc3ccccc3F)o2)c1 as the compound, how does the Cmax [8] read?
**A.** 92 ng/mL

**Q.** What about the bioavailability [9] of the same compound?
**A.** 15.6%

**Q.** Which solubility kinetic [1] does the source give for O=C(O)c1cccc(-c2cnc(-c3ccccc3F)o2)c1 here?
**A.** 69.5 µM (≈ 19.7 µg/mL)

**Q.** For COC(=O)c1cccc(-c2cnc(Nc3ccc(F)cc3)o2)c1, which solubility kinetic [1] is on record?
**A.** < 1 µM

**Q.** What does the source list for CN(c1ccc(F)cc1)c1ncc(-c2cccc(C(=O)O)c2)o1?
**A.** Kp at […] [2]: 0.0213; concentration at 0.5 h [3]: 529 ng/mL; concentration at […] [4]: 16.4 ng/g; Kp at 0.5 h [5]: 0.0137; solubility kinetic [1]: 277 µM (≈ 86.5 µg/mL); concentration at […] [6]: 788 ng/mL; concentration at 0.5 h [7]: 7.27 ng/g

**Q.** Which solubility kinetic [1] does the source give for O=C(O)c1cccc(-c2csc(Nc3ccccc3)n2)c1 here?
**A.** 70.2 µM (≈ 20.8 µg/mL)

**Q.** For Fc1cccc(-c2csc(Nc3ccccc3F)n2)c1, which solubility kinetic [1] is on record?
**A.** < 1 µM

**Q.** For COc1cccnc1Nc1nc(-c2ccccn2)cs1, which solubility kinetic [1] is on record?
**A.** 1.2 µM (≈ 0.341 µg/mL)

**Q.** Which solubility kinetic [1] does the source give for O=C(O)c1cccc(-c2cnc(Nc3ccc(F)cc3F)o2)c1 here?
**A.** 69 µM (≈ 21.8 µg/mL)

**Q.** Which solubility kinetic [1] does the source give for Fc1ccccc1Nc1nc(-c2ccccc2)cs1 here?
**A.** < 1 µM

**Q.** For O=C(O)c1cccc(-c2nc(Nc3ccccc3F)cs2)c1, which solubility kinetic [1] is on record?
**A.** > 100 µM

**Q.** With O=C(O)c1cccc(-c2csc(Nc3ccc(F)cc3)n2)c1 as the compound, how does the solubility kinetic [1] read?
**A.** 77.7 µM (≈ 24.4 µg/mL)

**Q.** Which solubility kinetic [1] does the source give for CNC(=O)c1cccc(-c2cnc(Nc3ccc(F)cc3)o2)c1 here?
**A.** 3.1 µM (≈ 0.965 µg/mL)

**Q.** For Nc1cccc(-c2cnc(Nc3ccc(F)cc3)o2)c1, which solubility kinetic [1] is on record?
**A.** 15.2 µM (≈ 4.09 µg/mL)

**Q.** For OCc1cccc(-c2csc(Nc3ccccc3F)n2)c1, which solubility kinetic [1] is on record?
**A.** 30.9 µM (≈ 9.28 µg/mL)

**Q.** With Cc1noc(-c2cccc(-c3cnc(Nc4ccc(F)cc4)o3)c2)n1 as the compound, how does the Kp at […] [2] read?
**A.** 6.93

**Q.** And the concentration at 0.5 h [3]?
**A.** 74.4 ng/mL

**Q.** And the concentration at […] [4]?
**A.** 821 ng/g

**Q.** What about the Kp at 0.5 h [5] of the same compound?
**A.** 4.81

**Q.** And the concentration at […] [6]?
**A.** 119 ng/mL

**Q.** What about the concentration at 0.5 h [7] of the same compound?
**A.** 357 ng/g

**Q.** For CC(=O)Nc1cccc(-c2cnc(Nc3ccc(F)cc3)o2)c1, which solubility kinetic [1] is on record?
**A.** 5 µM (≈ 1.56 µg/mL)

**Q.** What does the source list for O=C(O)c1cccc(-c2csc(Nc3ccccc3F)n2)c1?
**A.** Cmax [8]: 101 ng/mL; solubility kinetic [1]: 80.9 µM (≈ 25.4 µg/mL); bioavailability [9]: 26.6%

**Q.** Which results are given for CNC(=O)c1cccc(-c2cnc(N(C)c3ccc(F)cc3)o2)c1?
**A.** Kp at […] [2]: 1.21; concentration at 0.5 h [3]: 31.1 ng/mL; concentration at […] [4]: 200 ng/g; Kp at 0.5 h [5]: 1.02; solubility kinetic [1]: 60.4 µM (≈ 19.7 µg/mL); concentration at […] [6]: 164 ng/mL; concentration at 0.5 h [7]: 30.9 ng/g

**Q.** With O=C(O)c1ccc(-c2csc(-c3ccccc3F)n2)cc1 as the compound, how does the solubility kinetic [1] read?
**A.** 38.4 µM (≈ 11.5 µg/mL)

**Q.** Which solubility kinetic [1] does the source give for Cc1cccnc1Nc1ncc(-c2ccccn2)o1 here?
**A.** 72.5 µM (≈ 18.3 µg/mL)

**Q.** With O=C(O)c1cccc(-c2csc(-c3ccccc3F)n2)c1 as the compound, how does the solubility kinetic [1] read?
**A.** 55.2 µM (≈ 16.5 µg/mL)

**Q.** With COC(=O)c1cccc(-c2cnc(Nc3cccc(F)c3)o2)c1 as the compound, how does the solubility kinetic [1] read?
**A.** < 1 µM

**Q.** With COc1cccc(-c2csc(Nc3ccccc3F)n2)c1 as the compound, how does the solubility kinetic [1] read?
**A.** 49.3 µM (≈ 14.8 µg/mL)
